# Laboratory results taken from patent publication US20200179339A1, “PHARMACEUTICALS COMPOSITIONS FOR TREATMENT OF ATOPIC DERMATITIS” (CADILA HEALTHCARE LIMITED, priority 2018, published 2020).
# How the values were obtained:
# [1] = tested on: oxazolone induced atopic dermatitis in mice; assay: Ear thickness in oxazolone induced atopic dermatitis in mice; assay type: in vivo, female balb/c mice; design: Change in ear thickness: unit not given beside the values; conditions: for percentage inhibition in ear thickness (atopic dermatitis): topical; for % change: topical day 5 and day 6, ear thickness vs vehicle control; for Change in ear thickness: topical on left ear day 5 and day 6
# Description: (§1) The 7-8 week old female balb/c mice used for the study were divided into four groups of six mice each. Animal shaved on their abdomen region. On day-1, Oxazolone (Sigma chemical Co. USA) was dissolved in ethanol and applied at a dose volume is 500 ug/100 μl/mouse on shaved abdomen side as sensitized dose. On day 5, basal ear thickness was measured and oxazolone (dissolved in acetone, (100 μg/20 μl)) applied on left side ear at a dose volume of 20 μl/mouse on day 5 and day 6. Post Two hours of oxazolone application, treatment drugs applied on left ear respectively. Treatment was applied on day 5 and day 6 and ear thickness was measured on day 5 (basal), day 6 and day 7.
# All animals were assessed for the ear thickness measurement. Animals were sacrificed on day 7, Ear weight were taken and ear were collected for histology and gene expression.
# as §1, with “into five” for “into four”, “20 μ/mouse” for “20 μl/mouse”
# All animals were assessed for the ear thickness measurement. Animals were sacrificed on day 7, Ear weight were taken.
# [2] = tested on: cyclo-oxygenase enzymes (COX); conditions: background statement; cited from earlier work
# [3] = Study-1, text, Apremilast 3%, Diclofenac 1.5%
# [4] = Study-1, Apremilast 3%, Diclofenac 1.5%
# [5] = Study-1, Apremilast 3%, Diclofenac 1.5%, vehicle control 0.3
# [6] = Study-2, text, Apremilast 1%, Diclofenac 1%
# [7] = Study-2, Apremilast 1%, Diclofenac 1%
# [8] = Study-2, Apremilast 1%, Diclofenac 1%, vehicle control 0.44
Structure (SMILES),"percentage inhibition in ear thickness (atopic dermatitis) [1, 3]","% change [1, 4]","Change in ear thickness [1, 5]","percentage inhibition in ear thickness (atopic dermatitis) [1, 6]","% change [1, 7]","Change in ear thickness [1, 8]",approximate relative COX-1/COX-2 specificity ratio [2]
"CCOc1cc([C@@H](CS(C)(=O)=O)N2C(=O)c3cccc(NC(C)=O)c3C2=O)ccc1OC [Apremilast, (+)-2-[1-(3-ethoxy-4-methoxyphenyl)-2-methanesulfonylethyl]-4-acetylaminoisoindolin-1,3-dione]",38%,38.6%,0.18,45%,45.1%,0.24,
"O=C([O-])Cc1ccccc1Nc1c(Cl)cccc1Cl.[Na+] [Diclofenac, sodium salt of [2-(2,6-Dichloroanilino)phenyl]acetic acid]",64%,63.8%,0.11,37%,36.8%,0.28,one
